In patent US20120321610A1, “METHOD TO INHIBIT NEUROPATHIC PAIN BY INTRATHECAL INJECTION OF PROTEIN PHOSPHATASES” (priority 2011, published 2012):

How the values were obtained:
Format in all cases: in vivo, rat
[1] = system: CCI animals (chronic constriction injury of the sciatic nerve); experiment: Thermal withdrawal latency in CCI animals after intrathecal injection; settings: for analgesia, thermal latency threshold: group data, 100 units intrathecal, FIG. 13
Description: (§1) Thermal sensitivity is assessed using the hindpaw withdrawal test to a thermal noxious stimulus. An animal was placed inside a plastic box on a raised glass surface. The animal is free to move within the confines of the box. A movable, focused beam of radiant heat was placed under the glass on which the animal is resting a paw. The glass is progressively heated until a noxious threshold was reached to elicit paw withdrawal. As soon as the animal moved its paw, a photocell in the metal enclosure containing the heat source turned off the light. The latency (in sec) for the animal to withdraw its paw was recorded by a digital automatic display.
(§2) For both behaviors, the ipsilateral, injured, paw was tested four times to obtain an average value. Each test is separated by 5 min. Persons performing behavioral tests are blinded to treatment whenever possible.
(§3) Animals were anesthetized with isoflurane and prepared for surgery by clipping the hair over the mid-thigh area of the left hind leg, scrubbing the clipped area with povidone iodine and alcohol (repeated three times), and lubricating the eyes with sterile ophthalmic ointment. The sciatic nerve was exposed at mid-thigh level by blunt dissection through the biceps femoris muscles. The nerve was freed of adherent tissue, and four ligatures (4.0 chromic gut) were spaced about 1 mm apart. Care was taken to tie the ligatures so that the nerve trunk is just barely constricted when viewed with a dissecting microscope at 40×. […] The incision was closed in layers using chromic gut sutures for muscle and silk sutures for skin.
(§4) A stock solution of calcineurin enzyme at a concentration of 100 units/microliter is commercially available (Enzo Life Sciences, Plymouth Meeting, Pa., Cat. No. BML-SE163-5000). The stock solution was diluted 1:10 with saline (1 part of calcineurin stock solution+9 parts of saline) to make a diluted calcineurin solution of 10 units/microliter. Ten microliters of the diluted calcineurin solution was then injected intrathecally. In other words the dose is 100 units of calcineurin per animal. Animal weights were approximately 200 to 250 g. This equates to a dosage of roughly 3 μg/kg body weight (in the rat).
(§5) The animals were anesthetized with isoflurane and securely held in the sternal position. A 25 μl Hamilton-brand microsyringe was fitted with a 25-gauge, 1-inch hypodermic needle and the needle inserted between the dorsal aspects of L5 and L6 perpendicular to the vertebral column. This site corresponds to the region where the spinal cord ends and the cauda equina begins and was chosen to reduce the possibility of spinal damage. The needle was advanced until a slight but noticeable movement of the tail or the leg was observed. […] Drugs were injected in a volume of 10 μl and the syringe was held in place for a few seconds before being progressively and slowly withdrawn to avoid drug outflow. The rat then recovers from the anesthesia.

[2] = system: control, uninjured animals; experiment: Thermal withdrawal latency in control, uninjured animals after intrathecal injection; settings: uninjured rats
Description: as §1, §2
(§6) The animals were anesthetized with isoflurane and securely held in the sternal position. A 25 μl Hamilton-brand microsyringe was fitted with a 25-gauge, 1-inch hypodermic needle and the needle inserted between the dorsal aspects of L5 and L6 perpendicular to the vertebral column. This site corresponds to the region where the spinal cord ends and the cauda equina begins and was chosen to reduce the possibility of spinal damage. The needle was advanced until a slight but noticeable movement of the tail or the leg was observed. […]

[3] = system: calcineurin Aα isoform; experiment: Immunoblot of calcineurin Aα content in the post-synaptic density of spinal dorsal horn neurons after intrathecal injection; settings: CCI rats; 90 min after single intrathecal injection of 100 units; vs saline; FIG. 7
Description: (§7) Animals were anesthetized with isoflurane and while still deeply anesthetized were euthanized with an intracardiac injection of super-saturated potassium chloride (>350 mg/ml). A laminectomy was used to rapidly (<2 min) expose the lumbar spinal cord at L5. About 1 cm of the cord was excised and placed into a Petri dish containing dry-ice-cold saline or homogenizing buffer. Subsequently, the cord was cut under a dissecting microscope into dorsal and ventral halves, and the dorsal half further divided into ipsilateral and contralateral quadrants. All tissues were immediately placed into dry-ice cooled collecting tubes, and stored at −80° C. until used.
(§8) Calcineurin activity was obtained with a commercial kit (Enzo Life Sciences, Plymouth Meeting, Pa.) and expressed as nmol of phosphate released/min/mg of protein. Immunoblots were performed as described previously (Miletic et al., 2002). Calcineurin isoform […] (Millipore, Billerica, Mass.) was used at a dilution of 1:1000. Developed membranes were stripped and re-probed with beta III tubulin (1:1000; Promega, Madison, Wis.) as the loading control. Protein levels were estimated with the BioSpectrum 500 Image Analysis System (UVP, Upland, Calif.). The calcineurin Aα content within a gel was expressed over the beta III tubulin content, and then the content in sham-operated or CCI animals was normalized to those in control animals. […]

[4] = system: control, uninjured animals; experiment: Mechanical withdrawal threshold in control, uninjured animals after intrathecal injection; settings: uninjured rats
Description: (§9) An automated instrument was used for assessing touch sensitivity. An animal was placed inside a plastic box on a raised plasticized wire-mesh surface. The animal is free to move within the confines of the box. The animal acclimates to the apparatus, and a touch stimulator unit was then slid under the animal to position a stainless steel filament (0.5 mm diameter) under the plantar surface of a paw. A button press causes the filament to move perpendicularly to the tested paw. The filament exerts an increasing force, starting below the threshold of detection and increases until the animal withdraws the paw. The force applied to the filament that results in paw withdrawal was recorded.
as §2
as §6, with “damage.” for “damage. The needle was advanced until a slight but noticeable movement of the tail or the leg was observed.”

[5] = system: CCI animals (chronic constriction injury of the sciatic nerve); experiment: Mechanical withdrawal threshold in CCI animals after intrathecal injection; settings: for analgesia, mechanical stimulus threshold: group data, FIG. 12
Description: as §9, §2, §3, §4, §5

[6] = system: calcineurin; experiment: Calcineurin activity in the PSD after intrathecal injection (commercial kit); settings: control, uninjured rats; 90 minutes after intrathecal injection; vs saline; FIG. 16
Description: as §7, §8

## calcineurin
[1]; CCI rats 7 days post-ligation, 100 units in 10 μl intrathecal, retested 90 min after injection, FIG. 6
  thermal hypersensitivity: significantly attenuated
[1]; CCI rats, 2-day post-injection group
  analgesia, thermal latency threshold: provided analgesia
[1]; CCI rats, 4-day post-injection group
  analgesia, thermal latency threshold: provided analgesia
[1]; CCI rats, 6-day post-injection group
  analgesia, thermal latency threshold: disappeared
[1]; CCI rats, single intrathecal injection 100 units, 2 days after injection, continuous, FIG. 9
  thermal hypersensitivity: significantly attenuated
[1]; CCI rats, single intrathecal injection 100 units, 4 days after injection, continuous, FIG. 9
  thermal hypersensitivity: continued to exhibit analgesia
[1]; CCI rats, single intrathecal injection 100 units, 6 days after injection, continuous, FIG. 9
  thermal hypersensitivity: exhibited once again mechanical and thermal hypersensitivity
[2]; single intrathecal injection, FIG. 11
  behavior, thermal stimulation: not modified
[3]
  calcineurin Act in ipsilateral PSD: significantly more
[4]; single intrathecal injection, FIG. 10
  behavior, mechanical stimulation: not modified
[5]; CCI rats 7 days post-ligation, 100 units in 10 μl intrathecal, retested 90 min after injection, FIG. 5
  mechanical hypersensitivity: significantly attenuated
[5]; CCI rats, 100 units intrathecal, mechanical and thermal tests
  duration of pain relief from a single intrathecal injection: ≥ 4 days
[5]; CCI rats, 2-day post-injection group, 100 units intrathecal
  analgesia, mechanical stimulus threshold: provided analgesia
[5]; CCI rats, 4-day post-injection group, 100 units intrathecal
  analgesia, mechanical stimulus threshold: provided analgesia
[5]; CCI rats, 6-day post-injection group, 100 units intrathecal
  analgesia, mechanical stimulus threshold: disappeared
[5]; CCI rats, single intrathecal injection 100 units, 2 days after injection, same animals retested (continuous), FIG. 8
  mechanical hypersensitivity: significantly attenuated
[5]; CCI rats, single intrathecal injection 100 units, 4 days after injection, continuous, FIG. 8
  mechanical hypersensitivity: continued to exhibit analgesia
[5]; CCI rats, single intrathecal injection 100 units, 6 days after injection, continuous, FIG. 8
  mechanical hypersensitivity: exhibited once again mechanical and thermal hypersensitivity

## FK-506 [reference compound]
[2]; 90 minutes after intrathecal injection, vs saline, FIG. 15
  thermal latencies: significant decrease
[4]; 90 minutes after intrathecal injection, vs saline, FIG. 14
  mechanical withdrawal thresholds: significant decrease
[6]
  calcineurin activity in PSD: significant decrease
